Test results from US12084472B2 (Ardelyx, Inc., priority 2015, dated 2024).

Target: T1, human TGR5 (Homo sapiens, UniProt Q8TDU6)
T1 construct: expressed in transfected cells; host or cells: HEK293
T1 sequence (Q8TDU6 1-330): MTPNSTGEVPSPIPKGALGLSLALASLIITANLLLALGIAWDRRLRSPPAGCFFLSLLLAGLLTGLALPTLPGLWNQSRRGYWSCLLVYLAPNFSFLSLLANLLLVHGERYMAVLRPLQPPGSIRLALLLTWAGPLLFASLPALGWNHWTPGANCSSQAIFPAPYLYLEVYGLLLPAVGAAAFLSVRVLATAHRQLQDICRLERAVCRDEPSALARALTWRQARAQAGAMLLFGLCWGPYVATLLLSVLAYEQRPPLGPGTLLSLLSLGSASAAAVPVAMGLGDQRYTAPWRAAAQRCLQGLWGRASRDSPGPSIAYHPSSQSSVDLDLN
Assay: Cell-based TGR5 assay (cAMP generation, HTRF)
Conditions: HEK293 cells stably transfected with human TGR5; cAMP by HTRF; 30 minutes at 37° C.; read-out: pEC50 Human TGR5 (converted)
Method in brief: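 Read-out was HTRF detection of cAMP, converted to concentration via a standard curve and fitted (3-parameter logistic) for pEC50 and maximal response. Agonist stimulation used HEK293 cells stably transfected with human TGR5, incubated 30 min at 37° C in IBMX-containing buffer at 0.05 nM to 10 μM compound.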

| EC50 | Structure (SMILES) |
| --- | --- |
| 0.126 to 1 µM | O=C(NCCCC(CO)c1ccc(Cl)c(CNC2(c3cnccc3-c3ccccc3OC3CC3)CC2)c1)NC[C@H](O)[C@@H](O)[C@H](O)[C@H](O)CO (stereo partly drawn) [Compound I-384, 1-(4-{4-chloro-3-[({1-[4-(2-cyclopropoxyphenyl)pyridin-3-yl]cyclopropyl}amino)methyl]phenyl}-5-hydroxypentyl)-3-[(2S,3R,4R,5R)-2,3,4,5,6-pentahydroxyhexyl]urea] |
| < 0.1 µM | CC(CCCNC(=O)[C@@H](O)[C@@H](O)[C@H](O)[C@@H](O)CO)c1ccc(Cl)c(CNC2(c3cnccc3-c3ccccc3OC3CC3)CC2)c1 (stereo partly drawn) [Compound I-278, (2S,3S,4R,5S)-N-(4-{4-chloro-3-[({1-[4-(2-cyclopropoxyphenyl)pyridin-3-yl]cyclopropyl}amino)methyl]phenyl}pentyl)-2,3,4,5,6-pentahydroxyhexanamide] |
| 0.126 to 1 µM | CN(CCOCCN)S(=O)(=O)c1ccc(Cl)c(COC2(c3cnccc3-c3ccccc3OC3CC3)CC2)c1 [Compound I-400, N-[2-(2-aminoethoxy)ethyl]-4-chloro-3-({1-[4-(2-cyclopropoxyphenyl)pyridin-3-yl]cyclopropoxy}methyl)-N-methylbenzene-1-sulfonamide] |
| 0.126 to 1 µM | Cc1cc(CNC2(c3cnccc3-c3ccccc3OC3CC3)CC2)c(C)cc1CCCCC(=O)NC[C@H](O)[C@@H](O)[C@H](O)[C@H](O)CO [Compound I-148, 5-{4-[({1-[4-(2-cyclopropoxyphenyl)pyridin-3-yl]cyclopropyl}amino)methyl]-2,5-dimethylphenyl}-N-[(2S,3R,4R,5R)-2,3,4,5,6-pentahydroxyhexyl]pentanamide] |
| 0.126 to 1 µM | Clc1ccc(Cl)c(CNC2(c3cnccc3-c3ccccc3C3CC3)CC2)c1 [Compound I-10, 1-[4-(2-cyclopropylphenyl)pyridin-3-yl]-N-[(2,5-dichlorophenyl)methyl]cyclopropan-1-amine] |
| 0.126 to 1 µM | Cc1ccc(SCCCN(CCCCO)C(=O)[C@@H](O)[C@@H](O)[C@H](O)[C@@H](O)CO)cc1COC1(c2cnccc2-c2ccccc2OC2CC2)CC1 [Compound I-539, (2S,3S,4R,5S)-N-(3-{[3-({1-[4-(2-cyclopropoxyphenyl)pyridin-3-yl]cyclopropoxy}methyl)-4-methylphenyl]sulfanyl}propyl)-2,3,4,5,6-pentahydroxy-N-(4-hydroxybutyl)hexanamide] |
| < 0.1 µM | CN(C)S(=O)(=O)c1cc(COC2(c3cnccc3-c3ccccc3OC3CC3)CC2)c(Cl)cc1O [Compound I-731, 4-chloro-5-([1-[4-(2-cyclopropoxyphenyl)pyridin-3-yl]cyclopropoxy]methyl)-2-hydroxy-N,N-dimethylbenzene-1-sulfonamide] |
| 1.26 to 10 µM | O=C(CCCCc1cc(Cl)c(COC2(c3cnccc3-c3ccccc3OC3CC3)CC2)cc1Cl)NCCCN1CCN(CCCNC(=O)CCCCc2cc(Cl)c(COC3(c4cnccc4-c4ccccc4OC4CC4)CC3)cc2Cl)CC1 [Compound I-101, 5-[2,5-dichloro-4-({1-[4-(2-cyclopropoxyphenyl)pyridin-3-yl]cyclopropoxy}methyl)phenyl]-N-{3-[4-(3-{5-[2,5-dichloro-4-({1-[4-(2-cyclopropoxyphenyl)pyridin-3-yl]cyclopropoxy}methyl)phenyl]pentanamido}propyl)piperazin-1-yl]propyl}pentanamide] |
| < 0.1 µM | CCS(=O)(=O)CCN(CCCCCSc1ccc(Cl)c(COC2(c3cnccc3-c3ccccc3OC3CC3)CC2)c1)C(=O)[C@@H](O)[C@@H](O)[C@H](O)[C@@H](O)CO [Compound I-604, (2S,3S,4R,5S)-N-(5-{[4-chloro-3-({1-[4-(2-cyclopropoxyphenyl)pyridin-3-yl]cyclopropoxy}methyl)phenyl]sulfanyl}pentyl)-N-[2-(ethanesulfonyl)ethyl]-2,3,4,5,6-pentahydroxyhexanamide] |
| < 0.1 µM | CCCN(CCCCc1cc(Cl)c(COC2(c3cnccc3-c3ccccc3OC3CC3)CC2)cc1Cl)C(=O)[C@@H](O)[C@@H](O)[C@H](O)[C@@H](O)CO [Compound I-205, (2S,3S,4R,5S)-N-{4-[2,5-dichloro-4-({1-[4-(2-cyclopropoxyphenyl)pyridin-3-yl]cyclopropoxy}methyl)phenyl]butyl}-2,3,4,5,6-pentahydroxy-N-propylhexanamide] |
| < 0.1 µM | Cc1ccc(SCCCCN(CCS(C)(=O)=O)C[C@H](O)[C@@H](O)[C@H](O)[C@H](O)CO)cc1COC1(c2cnccc2-c2ccccc2OC2CC2)CC1 [Compound I-615, (2R,3R,4R,5S)-6-[(4-{[3-({1-[4-(2-cyclopropoxyphenyl)pyridin-3-yl]cyclopropoxy}methyl)-4-methylphenyl]sulfanyl}butyl)(2-methanesulfonylethyl)amino]hexane-1,2,3,4,5-pentol] |
| 0.126 to 1 µM | CC(=O)NCCCCN(CCCCSc1ccc(Cl)c(CNC2(c3cnccc3-c3ccccc3OC3CC3)CC2)c1)C(=O)[C@@H](O)[C@@H](O)[C@H](O)[C@@H](O)CO [Compound I-567, (2S,3S,4R,5S)-N-[4-({4-chloro-3-[({1-[4-(2-cyclopropoxyphenyl)pyridin-3-yl]cyclopropyl}amino)methyl]phenyl}sulfanyl)butyl]-N-(4-acetamidobutyl)-2,3,4,5,6-pentahydroxyhexanamide] |
| < 0.1 µM | O=C([C@@H](O)[C@@H](O)[C@H](O)[C@@H](O)CO)N(CCCCO)CCCCCSc1ccc(Cl)c(COC2(c3cnccc3-c3ccccc3OC3CC3)CC2)c1 [Compound I-605, (2S,3S,4R,5S)-N-(5-{[4-chloro-3-({1-[4-(2-cyclopropoxyphenyl)pyridin-3-yl]cyclopropoxy}methyl)phenyl]sulfanyl}pentyl)-2,3,4,5,6-pentahydroxy-N-(4-hydroxybutyl)hexanamide] |
| 1.26 to 10 µM | CC(C)(CC(=O)O)CC(=O)N(CCCCc1cc(Cl)c(CNC2(c3cnccc3-c3ccccc3OC3CC3)CC2)cc1Cl)C[C@H](O)[C@@H](O)[C@H](O)[C@H](O)CO [Compound I-201, 4-[(4-{2,5-dichloro-4-[({1-[4-(2-cyclopropoxyphenyl)pyridin-3-yl]cyclopropyl}amino)methyl]phenyl}butyl)[(2S,3R,4R,5R)-2,3,4,5,6-pentahydroxyhexyl]carbamoyl]-3,3-dimethylbutanoic acid] |
| < 0.1 µM | Clc1ccc(Cl)c(COC2(c3cnccc3-c3ccccc3OC3CC3)CC2)c1 [Compound I-46, 4-(2-cyclopropoxyphenyl)-3-{1-[(2,5-dichlorophenyl)methoxy]cyclopropyl}pyridine] |
| < 0.1 µM | C[C@@H](CCCCC(=O)N(C)C[C@H](O)[C@@H](O)[C@H](O)[C@H](O)CO)c1ccc(Cl)c(CNC2(c3cnccc3-c3ccccc3OC3CC3)CC2)c1 (single isomer, unassigned) [Compound I-328] |
| 0.126 to 1 µM | O=C(NC[C@H](O)[C@@H](O)[C@H](O)[C@H](O)CO)C12CCC(NS(=O)(=O)c3ccc(Cl)c(COC4(c5cnccc5-c5ccccc5OC5CC5)CC4)c3)(CC1)CC2 [Compound I-445, 4-[4-chloro-3-({1-[4-(2-cyclopropoxyphenyl)pyridin-3-yl]cyclopropoxy}methyl)benzenesulfonamido]-N-[(2S,3R,4R,5R)-2,3,4,5,6-pentahydroxyhexyl]bicyclo[2.2.2]octane-1-carboxamide] |
| < 0.1 µM | CC(=O)NCCN(CCCCSc1ccc(Cl)c(COC2(c3cnccc3-c3ccccc3OC3CC3)CC2)c1)C(=O)[C@@H](O)[C@@H](O)[C@H](O)[C@@H](O)CO [Compound I-564, (2S,3S,4R,5S)-N-(4-{[4-chloro-3-({1-[4-(2-cyclopropoxyphenyl)pyridin-3-yl]cyclopropoxy}methyl)phenyl]sulfanyl}butyl)-N-(2-acetamidoethyl)-2,3,4,5,6-pentahydroxyhexanamide] |
| 0.126 to 1 µM | FC(F)(F)c1ccc(Cl)cc1CNC1(c2cnccc2-c2ccccc2OC2CC2)CC1 [Compound I-30, N-{[5-chloro-2-(trifluoromethyl)phenyl]methyl}-1-[4-(2-cyclopropoxyphenyl)pyridin-3-yl]cyclopropan-1-amine] |
| 0.126 to 1 µM | O=C(NCCCCOc1ccc(Cl)c(COC2(c3cnccc3-c3ccccc3OC3CC3)CC2)c1)NC[C@H](O)[C@@H](O)[C@H](O)[C@H](O)CO [Compound I-755, 1-(4-(4-chloro-3-((1-(4-(2-cyclopropoxyphenyl)pyridin-3-yl)cyclopropoxy)methyl)phenoxy)butyl)-3-((2S,3R,4R,5R)-2,3,4,5,6-pentahydroxyhexyl)urea] |
| < 0.1 µM | Cc1cc(COC2(c3cnccc3-c3ccccc3OC3CC3)CC2)c(Cl)cc1CCCCN(CCCCCO)C(=O)NC[C@H](O)[C@@H](O)[C@H](O)[C@H](O)CO [Compound I-118, 1-{4-[5-chloro-4-({1-[4-(2-cyclopropoxyphenyl)pyridin-3-yl]cyclopropoxy}methyl)-2-methylphenyl]butyl}-1-(5-hydroxypentyl)-3-[(2S,3R,4R,5R)-2,3,4,5,6-pentahydroxyhexyl]urea] |
| < 0.1 µM | Cc1ccc(CCCCNC(=O)NC[C@H](O)[C@@H](O)[C@H](O)[C@H](O)CO)cc1CNC1(c2cnccc2-c2ccccc2OC2CC2)CC1 [Compound I-240, 1-(4-{3-[({1-[4-(2-cyclopropoxyphenyl)pyridin-3-yl]cyclopropyl}amino)methyl]-4-methylphenyl}butyl)-3-[(2S,3R,4R,5R)-2,3,4,5,6-pentahydroxyhexyl]urea] |
